The values that follow come from patent publication US20140051679A1, “KINASE INHIBITORS AND METHOD OF TREATING CANCER WITH SAME” (UNIVERISTY HEALTH NETWORKS, priority 2011, published 2014).

Assay [1] concerns MDA-MB-231 breast cancer cells. Briefly: Cell growth inhibition, Sulforhodamine B assay, MDA-MB-231. Format: cell-based. Particulars: Homo sapiens, 120 h, 5 days culture, SRB assay, read-out: Cell Line GI50 Range MDA-MB-231. A general note: In SRB staining, fixed cells bind dye roughly in proportion to their protein.
The target of the next assay is T1, human TTK (Homo sapiens, UniProt P33981).
T1 construct: amino terminal GST fusion of full length human TTK; purchased Invitrogen
T1 sequence (P33981 1-857): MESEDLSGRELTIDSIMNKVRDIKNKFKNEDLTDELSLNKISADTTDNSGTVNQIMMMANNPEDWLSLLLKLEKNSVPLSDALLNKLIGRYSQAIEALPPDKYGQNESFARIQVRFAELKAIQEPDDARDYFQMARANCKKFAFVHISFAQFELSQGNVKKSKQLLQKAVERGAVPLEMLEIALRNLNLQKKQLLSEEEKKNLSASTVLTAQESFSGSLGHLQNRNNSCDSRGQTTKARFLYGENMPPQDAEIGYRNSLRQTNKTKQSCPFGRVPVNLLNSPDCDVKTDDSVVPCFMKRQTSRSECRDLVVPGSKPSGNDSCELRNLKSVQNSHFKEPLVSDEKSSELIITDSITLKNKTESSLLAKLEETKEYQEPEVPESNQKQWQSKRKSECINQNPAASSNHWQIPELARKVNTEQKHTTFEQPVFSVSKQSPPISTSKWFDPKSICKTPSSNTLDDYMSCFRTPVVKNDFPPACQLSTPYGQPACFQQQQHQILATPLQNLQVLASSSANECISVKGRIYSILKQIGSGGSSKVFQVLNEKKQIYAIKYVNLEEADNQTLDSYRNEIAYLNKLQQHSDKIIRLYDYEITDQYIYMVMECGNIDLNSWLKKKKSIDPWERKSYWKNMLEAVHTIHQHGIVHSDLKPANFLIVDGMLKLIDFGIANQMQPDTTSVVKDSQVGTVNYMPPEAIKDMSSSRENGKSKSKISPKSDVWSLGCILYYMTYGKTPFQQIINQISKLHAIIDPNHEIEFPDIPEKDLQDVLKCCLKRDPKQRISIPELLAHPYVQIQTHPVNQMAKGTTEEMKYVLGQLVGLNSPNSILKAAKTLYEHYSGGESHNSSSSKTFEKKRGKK
The assay can be described thus: TTK inhibition assay (indirect ELISA). The class given is biochemical. Particulars: GST-TTK 0.68 nM, 16 μM ATP; read-out: IC50 Ranges TTK. Background: ELISA stands for enzyme-linked immunosorbent assay.

Assay [2] relates to OVCAR-3 ovarian cancer cells. The assay can be described thus: Cell growth inhibition, Sulforhodamine B assay, OVCAR-3. The following applies: Homo sapiens, 120 h, 5 days culture, SRB assay, read-out: Cell Line GI50 Range OVCAR-3. The class given is cell-based.
Assay [3] deals with MDA-MB-468 breast cancer cells. Briefly: Cell growth inhibition, Sulforhodamine B assay, MDA-MB-468. The following applies: Homo sapiens, 120 h, 5 days culture, SRB assay, read-out: Cell Line GI50 Range MDA-MB-468. The class given is cell-based.
For a further assay, the target named is T2, human PLK4 (Homo sapiens, UniProt O00444).
T2 construct: amino terminal GST fusion of residues 1-391 of human PLK4; made in house; host or cells: E. coli
T2 sequence (O00444 1-391): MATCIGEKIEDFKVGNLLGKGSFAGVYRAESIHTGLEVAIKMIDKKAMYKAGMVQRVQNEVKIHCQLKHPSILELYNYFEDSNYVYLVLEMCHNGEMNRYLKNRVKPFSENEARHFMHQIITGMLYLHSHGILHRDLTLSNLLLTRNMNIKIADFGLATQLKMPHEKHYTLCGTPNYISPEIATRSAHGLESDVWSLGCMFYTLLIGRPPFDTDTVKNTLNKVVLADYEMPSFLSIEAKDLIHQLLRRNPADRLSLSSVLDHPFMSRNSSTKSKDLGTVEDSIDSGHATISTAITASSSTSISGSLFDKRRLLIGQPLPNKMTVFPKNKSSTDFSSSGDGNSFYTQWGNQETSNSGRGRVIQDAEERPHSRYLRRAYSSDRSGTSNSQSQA
Briefly: PLK4 inhibition assay (indirect ELISA). Particulars: GST-PLK4 4 nM, 15 μM ATP; read-out: IC50 Ranges PLK4. The class given is biochemical. Summed up:
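Dephosphorylated GST-tagged human PLK4 (residues 1-391, E. coli), 4 nM, preincubated 15 min with compound, then reacted 30 min with 15 μM ATP on MBP-coated plates (50 mM HEPES pH 7.5, 10 mM MgCl2, 0.01% Brij 35). Phospho-MBP detected by antibody ELISA at 450 nm. Tested at 10 μM or 10-point titrations; IC50 from 4-parameter logistic fit.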

Assay [4] deals with HCT116 colon cancer cells. Briefly: Cell growth inhibition, Sulforhodamine B assay, HCT116. The class given is cell-based. Particulars: Homo sapiens, HCT-116, 120 h, 5 days culture, SRB assay, read-out: Cell Line GI50 Range HCT116.
The test system of a further assay is HT29 colon cancer cells. The assay can be described thus: Cell growth inhibition, Sulforhodamine B assay, HT29. The class given is cell-based. The following applies: Homo sapiens, HT-29, 120 h, 5 days culture, SRB assay, read-out: Cell Line GI50 Range HT29.
The target of the next assay is T3, Aurora B (Homo sapiens, UniProt Q96GD4).
T3 construct: purchased Invitrogen PV3970
The assay can be described thus: Aurora B inhibition assay (Z-Lyte). The following applies: 28 nM Aurora B, 128 μM ATP; read-out: IC50 Ranges Aurora B. The class given is biochemical. As to the method: Aurora B inhibition was determined using the Z-Lyte assay kit from Invitrogen. The assay was performed using the recommended manufacturer's instructions with 128 μM ATP and 28 nM Aurora B (Invitrogen cat #PV3970). The % inhibition values were determined according to the manufacturer's directions and IC50 values were obtained using a non-linear 4 point logistic curve fit (XLfit4, IDBS)

Usually GI50 stands for the concentration that inhibits growth by half. As a reminder, the IC50 is the point on the concentration scale where inhibition reaches its midpoint.

SMILES strings stand for the structures. Where only a bound is given, the exact number is not on record here.

T3 sequence (Q96GD4 whole entry): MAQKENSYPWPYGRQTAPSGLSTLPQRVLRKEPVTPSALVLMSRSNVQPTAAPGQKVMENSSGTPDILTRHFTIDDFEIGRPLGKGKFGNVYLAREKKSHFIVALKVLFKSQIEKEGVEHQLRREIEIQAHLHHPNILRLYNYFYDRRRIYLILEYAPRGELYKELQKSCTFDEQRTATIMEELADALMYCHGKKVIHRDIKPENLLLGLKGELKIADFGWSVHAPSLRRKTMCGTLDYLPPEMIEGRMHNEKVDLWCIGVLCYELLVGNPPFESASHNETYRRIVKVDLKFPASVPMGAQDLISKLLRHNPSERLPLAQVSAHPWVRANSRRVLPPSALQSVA

Consider `O=C(Nc1ccc2[nH]nc(-c3ccc(OC4CCNCC4)cc3)c2c1)C(c1ccsc1)N1CCCC1` (stereo not drawn) [Example A28, N-(3-(4-(piperidin-4-yloxy)phenyl)-1H-indazol-5-yl)-2-(pyrrolidin-1-yl)-2-(thiophen-3-yl)acetamide], for which the GI50 in assay [1] is ≤ 5 µM; in assay [2] it was 5 to 20 µM; in assay [3] it was ≤ 5 µM; in assay [4], ≤ 5 µM; with HT29 colon cancer cells it was ≤ 5 µM. The IC50 at human TTK, on human PLK4 and at Aurora B was ≤ 5 µM in each case.

Turning to `CC(C)N1CCC(Oc2ccc(-c3n[nH]c4ccc(NC(=O)C(c5ccsc5)N5CCCC5)cc34)cc2)CC1` (stereo not drawn) [Example A30, N-(3-(4-((1-isopropylpiperidin-4-yl)oxy)phenyl)-1H-indazol-5-yl)-2-(pyrrolidin-1-yl)-2-(thiophen-3-yl)acetamide], the GI50 (in assay [1]; in assay [2]; in assay [3]; in assay [4]; with HT29 colon cancer cells) was ≤ 5 µM each time. Also, the IC50 on human TTK, at human PLK4 and on Aurora B was ≤ 5 µM each time.

With `CN1CCC(Oc2ccc(-c3n[nH]c4ccc(NC(=O)C(c5ccsc5)N5CCCCC5)cc34)cc2)CC1` (stereo not drawn) [Example A31, N-(3-(4-((1-methylpiperidin-4-yl)oxy)phenyl)-1H-indazol-5-yl)-2-(piperidin-1-yl)-2-(thiophen-3-yl)acetamide], the GI50 (in assay [1]; in assay [2]; in assay [3]; in assay [4]; in the assay with HT29 colon cancer cells) was ≤ 5 µM each time. In addition, the 50% inhibitory concentration (IC50) on human TTK, on human PLK4 and on Aurora B was ≤ 5 µM throughout.

For the molecule `O=C(Nc1ccc2[nH]nc(-c3ccc(N4CCOCC4)cc3)c2c1)C(c1ccsc1)N1CCCCC1` (stereo not drawn) [Example A32, N-(3-(4-morpholinophenyl)-1H-indazol-5-yl)-2-(piperidin-1-yl)-2-(thiophen-3-yl)acetamide], the GI50 is 20 to 50 µM in assay [1]; 5 to 20 µM in assay [2]; ≤ 5 µM in assay [3]; ≤ 5 µM in assay [4]; ≤ 5 µM in the assay on HT29 colon cancer cells. Also, the IC50 on human TTK, at human PLK4 and on Aurora B was ≤ 5 µM each time.

For the molecule `O=C(Nc1ccc2[nH]nc(-c3ccc(OC4CCNCC4)c(Cl)c3)c2c1)C(c1ccsc1)N1CCCC1` (stereo not drawn) [Example A34, N-(3-(3-chloro-4-(piperidin-4-yloxy)phenyl)-1H-indazol-5-yl)-2-(pyrrolidin-1-yl)-2-(thiophen-3-yl)acetamide], the concentration for 50% growth inhibition (GI50) (in assay [1]; in assay [2]; in assay [3]; in assay [4]; in the assay with HT29 colon cancer cells) was ≤ 5 µM each time. Moreover, the IC50 on human TTK, on human PLK4 and on Aurora B was ≤ 5 µM each time.

As for `CN1CCC(Oc2ccc(-c3n[nH]c4ccc(NC(=O)C(c5ccsc5)C5CCCC5)cc34)cc2)CC1` (stereo not drawn) [Example A36, 2-cyclopentyl-N-(3-(4-((1-methylpiperidin-4-yl)oxy)phenyl)-1H-indazol-5-yl)-2-(thiophen-3-yl)acetamide], the GI50 (in assay [1]; in assay [2]; in assay [3]; in assay [4]; in the assay on HT29 colon cancer cells) was ≤ 5 µM throughout. The IC50 on human TTK, on human PLK4 and on Aurora B was ≤ 5 µM each time.

As for `O=C(Nc1ccc2[nH]nc(-c3ccc(N4CCOCC4)cc3)c2c1)Nc1ccccc1Cl` [Example A66, 1-(2-chlorophenyl)-3-(3-(4-morpholinophenyl)-1H-indazol-5-yl)urea], the GI50 in assay [1] is 5 to 20 µM; in assay [2], 5 to 20 µM; in assay [3], 5 to 20 µM; in assay [4] it was ≤ 5 µM; in the assay on HT29 colon cancer cells, ≤ 5 µM. Also, the IC50 at human TTK and on human PLK4 was ≤ 5 µM in each case.

Consider `CN1CCN(Cc2ccc(-c3n[nH]c4ccc(NC(=O)C(c5ccsc5)N5CCCC5)cc34)cc2)CC1` (stereo not drawn) [Example A67, N-(3-(4-((4-methylpiperazin-1-yl)methyl)phenyl)-1H-indazol-5-yl)-2-(pyrrolidin-1-yl)-2-(thiophen-3-yl)acetamide], for which the GI50 was ≤ 5 µM in assay [1]; 5 to 20 µM in assay [2]; ≤ 5 µM in assay [3]; ≤ 5 µM in assay [4]; ≤ 5 µM with HT29 colon cancer cells. The IC50 on human TTK and on human PLK4 was ≤ 5 µM each time.

`O=C(Nc1ccc2[nH]nc(-c3ccc(NC4CCCCC4)cc3)c2c1)C(c1ccsc1)N1CCCC1` (stereo not drawn) [Example A68, N-(3-(4-(cyclohexylamino)phenyl)-1H-indazol-5-yl)-2-(pyrrolidin-1-yl)-2-(thiophen-3-yl)acetamide]: the GI50 (in assay [1]; in assay [2]; in assay [3]; in assay [4]; in the assay with HT29 colon cancer cells) was ≤ 5 µM throughout. Moreover, the IC50 on human TTK and at human PLK4 was ≤ 5 µM throughout.

As to `CN1CCC(Oc2ccc(-c3n[nH]c4ccc(NC(=O)N5CCCc6ccccc65)cc34)cc2)CC1` [Example A73, N-(3-(4-((1-methylpiperidin-4-yl)oxy)phenyl)-1H-indazol-5-yl)-3,4-dihydroquinoline-1(2H)-carboxamide], the GI50 is ≤ 5 µM in assay [1]; 5 to 20 µM in assay [2]; ≤ 5 µM in assay [3]; ≤ 5 µM in assay [4]; ≤ 5 µM in the assay with HT29 colon cancer cells. Also, the IC50 on human TTK and at human PLK4 was ≤ 5 µM throughout.

`CN1CCC(Oc2ccc(-c3n[nH]c4ccc(C(=O)NCC(C)(C)N5CCOCC5)cc34)cc2)CC1` [Example A74, N-(2-methyl-2-morpholinopropyl)-3-(4-((1-methylpiperidin-4-yl)oxy)phenyl)-1H-indazole-5-carboxamide]: the GI50 in assay [1] is 5 to 20 µM; in assay [2], 20 to 50 µM; in assay [3], ≤ 5 µM; in assay [4] it was ≤ 5 µM; with HT29 colon cancer cells, ≤ 5 µM. Besides, the IC50 on human TTK and on human PLK4 was ≤ 5 µM in each case.

For the molecule `CN1CCC(Oc2ccc(-c3n[nH]c4ccc(C(=O)NCC(c5ccsc5)N5CCOCC5)cc34)cc2)CC1` (stereo not drawn) [Example A75, 3-(4-((1-methylpiperidin-4-yl)oxy)phenyl)-N-(2-morpholino-2-(thiophen-3-yl)ethyl)-1H-indazole-5-carboxamide], the GI50 was 5 to 20 µM in assay [1]; 5 to 20 µM in assay [2]; ≤ 5 µM in assay [3]; ≤ 5 µM in assay [4]; ≤ 5 µM in the assay on HT29 colon cancer cells. Also, the half-inhibitory concentration (IC50) at human TTK and at human PLK4 was ≤ 5 µM each time.
